# Laboratory results taken from PMC12300231, “Ferroptosis Among the Antiproliferative Pathways Activated by a Lipophilic Ruthenium(III) Complex as a Candidate Drug for Triple-Negative Breast Cancer” (Pharmaceutics, 2025).
# Experiments:
# BT-549 = assay: Cell survival index (MTT assay plus automated cell count), IC50; assay type: cell-based, Human; conditions: BT-549 TNBC cells, 48 h of incubation, mean ± SEM (n = 15)
# Experimental: (§1) The antiproliferative activity was evaluated by estimating a “cell survival index” through targeted bioscreens, which joins cell viability assessment (by the MTT functional assay) with automated cell count (quantitative assay by automatic cell counter). Specifically, the “cell survival index” is calculated as the arithmetic average between the percentage values derived from the MTT assay and automated cell counting. For in vitro treatments, TNBC cell lines (MDA-MB-231, Hs 578T and BT-549) were seeded into 96-well culture plates at a density of 10^4 cells/well and allowed to grow for 24 h. The culture medium was then replaced with fresh medium, and the cells were treated with PalmiPyRu at concentrations ranging from 5 to 150 μM for different times, depending on the type of experiment. Cisplatin (cDDP) was used as a reference drug (positive control).
# (§2) The same experimental setup in vitro was applied to assess the biocompatibility of PalmiPyRu on healthy control cell lines (HDFas, HHFKs, HaCaTs and […]). Cell viability was measured using the MTT assay (Sigma, Milan, Italy), which evaluates mitochondrial redox capacity to convert dissolved MTT into insoluble purple formazan. Briefly, after treatments, the medium was removed, and cells were incubated with 20 μL/well of MTT solution (5 mg/mL) for 1 h at 37 °C in a humidified 5% CO2 incubator. […] Finally, absorbance was measured at 550 nm using a microplate reader (ThermoFisher, Waltham, MA, USA). Total cell counting was determined using the TC20 automated cell counter (Bio-Rad, Milan, Italy), which provides accurate and reproducible total cell counts and a live/dead ratio in a single step using a specific dye exclusion assay (Trypan Blue). […] The mixture was loaded into disposable slide chamber and analyzed. The instrument provided a total cell count (cells/mL), live cell count and percent viability, automatically adjusting for dilution if Trypan Blue was detected. […]
# (§3) All subsequent in vitro experiments were performed using PalmiPyRu IC50 concentrations, calculated as previously described.
# Hs578T = assay: as above; assay type: cell-based, Human; conditions: Hs578T TNBC cells, 48 h of incubation, mean ± SEM (n = 15)
# Experimental: as §1, §2, §3
# MDA-MB-231 = assay: as above; assay type: cell-based, Human; conditions: MDA-MB-231 TNBC cells, 48 h of incubation, mean ± SEM (n = 15)
# Experimental: as §1, §2, §3
# HDFa = assay: Cell survival index, biocompatibility on healthy cells; assay type: cell-based; conditions: 48 h of incubation, mean ± SEM (n = 15)
# Experimental: as §1, §2, §3
# HHFK = assay: as above; assay type: cell-based; conditions: 48 h of incubation, mean ± SEM (n = 15)
# Experimental: as §1, §2, §3
# MCF-10A = assay: as above; assay type: cell-based; conditions: MCF-10A healthy cells, 48 h of incubation, mean ± SEM (n = 15)
# Experimental: as §1, §2, §3
# HaCaT = assay: as above; assay type: cell-based, Human; conditions: 48 h of incubation, mean ± SEM (n = 15)
# Experimental: The antiproliferative activity was evaluated by estimating a “cell survival index” through targeted bioscreens, which joins cell viability assessment (by the MTT functional assay) with automated cell count (quantitative assay by automatic cell counter). Specifically, the “cell survival index” is calculated as the arithmetic average between the percentage values derived from the MTT assay and automated cell counting. For in vitro treatments, TNBC cell lines (MDA-MB-231, Hs 578T and BT-549) were seeded into 96-well culture plates at a density of 10^4 cells/well and allowed to grow for 24 h. […]
# as §2, with “formazan.” for “formazan. Briefly, after treatments, the medium was removed, and cells were incubated with 20 μL/well of MTT solution (5 mg/mL) for 1 h at 37 °C in a humidified 5% CO2 incubator.”, “analyzed.” for “analyzed. The instrument provided a total cell count (cells/mL), live cell count and percent viability, automatically adjusting for dilution if Trypan Blue was detected.”
# MDA-MB-231 cells = assay: Mitochondria morphological analysis by confocal microscopy (MitoTracker Red); assay type: cell-based, Human; conditions: MDA-MB-231, 48 h, cDDP 10 µM or Erastin 10 µM, vs untreated cells
# Experimental: Morphological changes in the mitochondria of MDA-MB-231 cells after treatments in vitro were determined using the MitoTracker Red CMXRos selective probe (Ex\Em 579/599 nm). Briefly, 1.5 × 10^4 cells were seeded in a four-well µ-Slide and incubated for 48 h. Then, cells were treated with the IC50 concentration of PalmiPyRu, cDDP (10 µM) or Erastin (10 µM), respectively, for a further 48 h. After incubations, cells were treated with FBS-free medium containing 100 nM MitoTracker at 37 °C for 20 min. To label the nuclei, a DAPI (Ex/Em 358/461 nm) solution (1:1000) was used at room temperature for 10 min of incubation. Fluorescence images were captured using a confocal microscope (Zeiss LSM 900 Airyscan 2) with a 63× magnification (oil-immersion objective).
Structure (SMILES),IC50 (BT-549),IC50 (Hs578T),IC50 (MDA-MB-231),IC50 (HDFa),IC50 (HHFK),IC50 (MCF-10A),IC50 (HaCaT),Mitochondrial red fluorescent signal (MitoTracker) (MDA-MB-231 cells)
"[NH2][Pt]([NH2])([Cl])[Cl] [cDDP, cisplatin]",15 ± 2 µM,20 ± 4 µM,11 ± 3 µM,72 ± 4 µM,93 ± 3 µM,88 ± 3 µM,50 ± 3 µM,significantly reduced
CCOc1ccccc1-n1c(C(C)N2CCN(C(=O)COc3ccc(Cl)cc3)CC2)nc2ccccc2c1=O (stereo not drawn) [Erastin],,,,,,,,lowered the mitochondrial fluorescent signal
